# Source: US11786485B2, “Methods and compositions for treating advanced stage non-small cell lung cancer” (Golden Biotechnology Corporation, priority 2016, dated 2023)
# What was measured:
# [1] = Tissue distribution in rat; type: in vivo; conditions: previous study
# [2] = Phase 1 clinical study: safety/tolerability; type: in vivo
# Experimental: (§1) A first-in-human phase 1 study was performed to determine the MTD and to evaluate PK, safety/tolerability and efficacy profiles of exemplary Compound 1 in NSCLC patients who are refractory to conventional treatment modalities. This open-label, non-randomized, dose-escalation study, which completed in February 2013, enrolled a total of 13 patients; seven males and six females, all of whom were Asian. A total of five patients were enrolled an accelerated titration phase (one patient each in the 50, 100, 200, 300, and 450 mg dose groups) and eight patients were enrolled in a standard titration phase (three patients in the 450 mg dose group and five patients in the 600 mg dose group).
# [3] = Phase 1 clinical study: pharmacokinetics; type: in vivo
# Experimental: as §1
# Compound 1 will be administered as a single agent in this study at a dose of 600 mg per day (200 mg t.i.d. administered at 8-hour intervals). This dose regimen was chosen based on results from the Phase 1 clinical study involving NSCLC patients refractory to conventional treatment modalities, which reported good tolerability of Compound 1 up to 600 mg/day.
# [4] = Toxicokinetic evaluations in rats and dogs; type: in vivo; conditions: for dose proportionality of exposure: rat and dog
# Experimental: Toxicokinetic evaluations were performed on a 7-day dog study (100, 250, 500 mg/kg/day single dose, 500 mg/kg/day 3 days dose) and the two 28-day studies mentioned above (Rat: 10, 30, 100 mg/kg/day single and 28 days dose; Dog: 10, 30, 100 mg/kg/day single and 28 days dose).
# [5] = Safety pharmacology: cardiovascular effect; type: in vivo; conditions: beagle dogs
# hERG ion channel = hERG ion channel (Homo sapiens, UniProt Q12809); assay: Safety pharmacology: binding activity with hERG ion channel in vitro
# hERG ion channel, sequence (Q12809 whole entry): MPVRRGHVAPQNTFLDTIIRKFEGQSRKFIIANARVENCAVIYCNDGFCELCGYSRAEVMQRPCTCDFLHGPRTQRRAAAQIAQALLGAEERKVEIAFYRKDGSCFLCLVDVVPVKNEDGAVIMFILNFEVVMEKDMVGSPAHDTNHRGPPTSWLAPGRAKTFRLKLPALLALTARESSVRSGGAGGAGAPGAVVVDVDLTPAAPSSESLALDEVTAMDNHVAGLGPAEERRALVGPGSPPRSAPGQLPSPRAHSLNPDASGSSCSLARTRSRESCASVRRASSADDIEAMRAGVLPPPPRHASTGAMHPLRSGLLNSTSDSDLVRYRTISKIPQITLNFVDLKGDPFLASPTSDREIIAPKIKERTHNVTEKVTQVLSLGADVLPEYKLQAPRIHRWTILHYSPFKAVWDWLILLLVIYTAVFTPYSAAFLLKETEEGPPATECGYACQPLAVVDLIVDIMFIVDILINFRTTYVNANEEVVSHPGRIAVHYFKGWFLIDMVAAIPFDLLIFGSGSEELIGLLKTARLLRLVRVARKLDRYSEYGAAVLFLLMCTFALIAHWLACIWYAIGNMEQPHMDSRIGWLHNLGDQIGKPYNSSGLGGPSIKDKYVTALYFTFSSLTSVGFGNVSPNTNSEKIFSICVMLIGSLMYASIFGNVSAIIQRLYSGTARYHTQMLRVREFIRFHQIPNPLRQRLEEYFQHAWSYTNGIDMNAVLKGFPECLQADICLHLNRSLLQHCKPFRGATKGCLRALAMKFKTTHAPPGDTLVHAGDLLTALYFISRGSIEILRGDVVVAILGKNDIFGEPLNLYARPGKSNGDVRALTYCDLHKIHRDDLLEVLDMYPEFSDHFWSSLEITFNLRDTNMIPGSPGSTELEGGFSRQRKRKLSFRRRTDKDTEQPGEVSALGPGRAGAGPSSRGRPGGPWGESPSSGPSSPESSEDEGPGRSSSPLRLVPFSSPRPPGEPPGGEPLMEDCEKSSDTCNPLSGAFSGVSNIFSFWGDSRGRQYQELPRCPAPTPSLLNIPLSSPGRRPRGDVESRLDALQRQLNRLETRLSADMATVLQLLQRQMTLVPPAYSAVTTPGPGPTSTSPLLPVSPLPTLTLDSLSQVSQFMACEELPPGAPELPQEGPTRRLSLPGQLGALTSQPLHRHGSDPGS
# [6] = Safety pharmacology: central nervous system effect; type: in vivo; conditions: Sprague-Dawley rat
# [7] = 28-day toxicity study in rats; type: in vivo; conditions: rat
# Experimental: . Two 28-days toxicity studies were conducted to determine no observed adverse effect level (NOAEL) for Sprague-Dawley rats and beagle dogs. […]
# [8] = Safety pharmacology: respiratory system effect; type: in vivo; conditions: Sprague-Dawley rat
# [9] = 7-day toxicity study in dogs; conditions: beagle, dog, in vivo, 7-day study, read-out: maximum tolerated dose (MTD)
# [10] = Genotoxicity tests (Ames, mammalian cell gene mutation, micronucleus, erythrocyte micronucleus)
# [11] = test system: different cancer cell lines; assay: Cancer cell death, IC50; type: cell-based
# From the text: Compound 1 inhibited isoprenyltransferase activity and molecular docking analysis predicted that the isoprene unit and the 4′-hydroxy group of Compound 1 may play important roles in the interaction between Compound 1 and isoprenyltransferase. In addition, Compound 1 increased the expression level of beclin-1 (three-fold), LC3-II/I (P<0.01) and […] formation in lung cancer cells. Compound 1 may therefore inhibit Ras activation through inhibition of isoprenyltransferase, leading to autophagic cell death.
# NSCLC = assay: Phase 1 clinical study: efficacy (tumor overall response); type: in vivo, human; conditions: end of treatment
# Experimental: as §1
# The PPS was defined in the Phase 1 study as all patients who completed at least three cycles of treatment with proper imaging assessment (RECIST v.1.1).
# [12] = test system: stage IV (including pleural effusion) non-squamous NSCLC; assay: Phase II study in stage IV non-squamous NSCLC patients; type: in vivo, human
# From the text: This is a single-arm, open-label, Phase II study in KRAS-positive and KRAS-negative patients with stage IV (including pleural effusion) non-squamous NSCLC who have failed two lines of anti-cancer therapy. This is defined as patients with radiologically confirmed disease progression following greater than or equal to two, but less than or equal to four, prior lines of systemic anti-cancer therapy. A maximum of 60 evaluable patients with NSCLC will receive Compound 1, of which 30 patients will be KRAS-positive and 30 patients KRAS-negative. An evaluable patient will have received at least one dose of Compound 1 and have a valid baseline tumor assessment. Enrollment will continue until the target number of evaluable patients has been enrolled.
# Written informed consent must be obtained from all patients before initiating Screening. The Screening period will be up to 42 days in duration (Days −42 to −1). Following completion of all Screening assessments and confirmation of eligibility criteria, patients will receive Compound 1 200 mg three-times-a-day (t.i.d. at 8-hour intervals) on Day 0 for 12 weeks (one treatment cycle) or until documented evidence of disease progression, unacceptable toxicity, non-compliance or withdrawal of consent by the patient, or the investigator decides to discontinue treatment, whichever comes first. Study drug should be taken at 8-hour intervals. The time of study drug administration should be recorded in the patient diary.
# The primary efficacy endpoint is progression-free survival (PFS) rate at 12 weeks, which is defined as the proportion of patients alive and progression-free at Week 12. Patients will be progression-free if they have no evidence of progressive disease (defined according to RECIST guidelines, version 1.1) from the start of treatment to Week 12.
# The primary endpoint is the PFS rate at 12 weeks, defined as the proportion of patients alive and progression-free at Week 12. […]
# Tumor response will be assessed at 6-week intervals during the first treatment cycle using the RECIST criteria version 1.1. […]
# [13] = Reproductive toxicity in vivo study; conditions: up to 80 mg/kg/day, Sprague-Dawley rats
# [14] = 7-day toxicity study in rats; conditions: Sprague-Dawley, rat, in vivo, 7-day study, read-out: maximum tolerated dose (MTD)
# [15] = 28-day toxicity study in dogs; type: in vivo; conditions: 28-day study, dog
# Experimental: […]. Two 28-days toxicity studies were conducted to determine no observed adverse effect level (NOAEL) for Sprague-Dawley rats and beagle dogs. […].
# [16] = Preclinical pharmacokinetic studies; type: in vivo; conditions: preclinical PK studies
# [17] = test system: epidermal growth factor receptor (EGFR); conditions: human, in vivo; cited from earlier work
structure (smiles),measurement,setting,value
"COC1=C(OC)C(O)C(C/C=C(\C)CC/C=C(\C)CCC=C(C)C)C(C)C1=O (stereo not shown) [Compound 1, 4-hydroxy-2,3-dimethoxy-6-methyl-5-(3,7,11-trimethyldodeca-2,6,10-trienyl)cyclohex-2-enone]",tissue with the highest accumulation,[1],lung tissue
same,patients with Grade 3 TEAEs,"[2]; 200 mg vertigo, 450 mg decreased appetite and encephalitis, unrelated to study drug",two
same,laboratory abnormality recorded as a TEAE,"[2]; 450 mg dose group, considered unrelated to study drug",one case of hematuria of Grade 1
same,patients with treatment-related TEAEs,[2]; 13 patients treated,100%
same,Dose Limiting Toxicities (DLTs),"[2]; 50, 100, 200, 300, 450, 600 mg, Intent-to-Treat Population",No Dose Limiting Toxicities
same,toxicity profile,[2]; 50-600 mg dose levels,low toxicity profile
same,safety and tolerability,"[2]; 50-600 mg dose levels, daily for 4 weeks",generally safe and well tolerated
same,"clinically significant changes in vital sign, ECG and physical examination parameters",[2]; Follow-Up Visit,None of the patients
same,"diarrhea, patients",[2]; Grade 1,69.2%
same,"gastrointestinal disorders, patients",[2]; Grade 1,53.8%
same,"nausea, patients",[2]; Grade 1,46.2%
same,"vomiting, patients",[2]; Grade 1,46.2%
same,"diarrhea, patients",[2]; Grade 2,7.7%
same,"gastrointestinal disorders, patients",[2]; Grade 2,38.5%
same,"nausea, patients",[2]; Grade 2,7.7%
same,"vomiting, patients",[2]; Grade 2,23.1%
same,Grade 4 treatment-emergent adverse events (TEAEs),[2]; NCI-CTCAE Version 4.03,No Grade 4
same,"diarrhea, patients",[2]; all grades,76.9%
same,"gastrointestinal disorders, patients",[2]; all grades,92.3%
same,"nausea, patients",[2]; all grades,53.8%
same,"vomiting, patients",[2]; all grades,69.2%
same,ECOG score,[2]; all patients at all time points except two patients in the 450 mg group (scores 4 and 2),1
same,patients reporting serious adverse events (SAEs),"[2]; two each at 450 and 600 mg, none related to study drug",four
same,differences in AUC0-24 within the 100-300 mg dose range,[3]; Day 1 and Day 28,no significant differences
same,proportionality of AUC0-24 to dose,[3]; Day 1 and Day 28,not linearly proportional
same,dose with the highest peak concentration (Cmax) over the 100-300 mg dose range,[3]; Day 28,200 mg
same,extent of absorption versus dose,"[3]; human, in vivo",dose proportional
same,rate and extent of absorption versus dose,"[3]; human, in vivo",increased in a dose proportional manner
same,rate of absorption versus dose,"[3]; human, in vivo",non-dose proportional
same,Tmax,"[4]; Sprague-Dawley (rat), beagle (dog), rat, dog, in vivo, rats and dogs, 7-day and 28-day studies, read-out: peak time (Tmax)",0.25 to 6 h
same,dose proportionality of exposure,[4]; after 1 day of treatment,trend of dose proportionality
same,dose proportionality of exposure,[4]; after 28 days of treatment,inconsistent phenomena
same,cardiovascular effect,[5],no particular safety concerns
same,binding activity with hERG ion channel,hERG ion channel,no particular safety concerns
same,central nervous system effect,[6],no particular safety concerns
same,toxicity of the high dose,"[7]; 28-day study, 100 mg/kg/day",not severely toxic
same,NOAEL at 28 days,"[7]; Sprague-Dawley, in vivo",30 mg/kg/day
same,respiratory system effect,[8],no particular safety concerns
same,MTD at 7 days,[9],100 mg/kg/day
same,genotoxicity,[10],No genotoxicity
same,IC50,[11],2.22 to 6.42 µM
same,proportion of Per-Protocol patients with stable disease,NSCLC,100%
same,subjects alive or progression free at 12 week,"[12]; 200 mg t.i.d., overall population",4 subjects out of 20
same,tumor progression free rate or proportion of patients alive at 12 weeks,"[12]; KRAS mutant patients, 200 mg t.i.d.",3/14
same,efficacy for target and non-target lesions at lung related sites,[12]; preliminary phase 2 result,5/11
same,reproductive toxicity,[13],no reproductive toxicity
same,MTD at 7 days,[14],100 mg/kg/day
same,highest non-severely toxic dose (HNSTD),[15],30 mg/kg/day
same,absorption,[16],fast absorption
same,metabolism profile,[16],CYP involved metabolism
same,organ distribution,[16],"substantial organ distribution especially in the lung, heart, and kidney"
C#Cc1cccc(Nc2ncnc3cc(OCCOC)c(OCCOC)cc23)c1 [erlotinib],response rate,[17],60%
